Where two headings read alike, the source gives them in different places.
Target: T1, Cbl-B (Homo sapiens, UniProt Q13191)
T1 construct: MSD-Based Assay for Degradation of Cbl-B in THP-1 Cells; endogenous in cells; host or cells: THP-1 (title) / Jurkat (protocol text)
Experiment: MSD-based assay for degradation of Cbl-B in THP-1 cells
Format: cell-based
Method in brief: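 THP-1 cells were treated with compound for 24 h at 37 °C. Cbl-B in lysates was quantified by MSD sandwich immunoassay, with anti-Cbl-B capture antibody at 1 ug/mL and SULFO-TAG anti-rabbit detection. Maximal degradation (Dmax) was binned as A >70%, B 50–70%, C 30–50%, D <30%.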

[1] = Cbl-B degradation, Jurkat cells seeded (heading: THP-1 cells), 24 hours incubation, MSD readout
[2] = Cbl-B degradation, Jurkat cells seeded (heading: THP-1 cells), 24 hours incubation, MSD readout, read-out: Dmax

T1 sequence (Q13191 whole entry): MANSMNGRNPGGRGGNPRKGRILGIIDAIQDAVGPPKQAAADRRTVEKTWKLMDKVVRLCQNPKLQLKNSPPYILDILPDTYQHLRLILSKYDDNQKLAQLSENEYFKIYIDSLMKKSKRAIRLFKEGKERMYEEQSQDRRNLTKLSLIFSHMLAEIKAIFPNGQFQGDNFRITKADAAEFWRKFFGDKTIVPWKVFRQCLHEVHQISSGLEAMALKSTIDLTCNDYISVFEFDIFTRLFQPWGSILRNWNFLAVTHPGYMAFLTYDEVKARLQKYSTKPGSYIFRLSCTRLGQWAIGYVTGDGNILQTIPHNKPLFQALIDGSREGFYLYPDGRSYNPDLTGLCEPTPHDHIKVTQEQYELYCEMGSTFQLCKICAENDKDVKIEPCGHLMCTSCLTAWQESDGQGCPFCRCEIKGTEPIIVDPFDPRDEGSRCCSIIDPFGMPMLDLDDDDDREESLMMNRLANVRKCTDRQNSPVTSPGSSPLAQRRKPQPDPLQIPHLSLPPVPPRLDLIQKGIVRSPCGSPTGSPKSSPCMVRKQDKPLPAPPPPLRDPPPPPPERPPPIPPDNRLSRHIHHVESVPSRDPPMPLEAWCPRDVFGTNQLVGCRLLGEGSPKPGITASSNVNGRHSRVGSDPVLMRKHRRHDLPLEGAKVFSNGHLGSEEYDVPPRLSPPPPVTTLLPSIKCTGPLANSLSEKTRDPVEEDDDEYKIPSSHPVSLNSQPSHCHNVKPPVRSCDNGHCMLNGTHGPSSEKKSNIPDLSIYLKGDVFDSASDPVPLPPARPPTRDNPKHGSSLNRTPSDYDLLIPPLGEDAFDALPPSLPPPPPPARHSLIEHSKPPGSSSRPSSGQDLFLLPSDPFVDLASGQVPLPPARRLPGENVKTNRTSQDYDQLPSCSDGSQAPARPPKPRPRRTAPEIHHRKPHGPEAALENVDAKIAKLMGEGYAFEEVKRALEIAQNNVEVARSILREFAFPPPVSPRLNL

Cn1cnnc1[C@@H](c1cccc(N2Cc3c(cc(CN4CCC[C@H](OCc5ccc(CC6CCN(c7ccc8c(c7)CN([C@H]7CCC(=O)NC7=O)C8=O)CC6)cc5)C4)cc3C(F)(F)F)C2=O)c1)C1CCC1 [Compound 190]
DC50 [1]: 300 to 1000 nM | Dmax [2]: 30 to 50%

Cn1cnnc1CC1(c2cccc(-n3cc4c(C(F)(F)F)cc(CN5CCN(CCc6ccc(N7CCN(c8ccc9c(c8)CN([C@@H]8CCC(=O)NC8=O)C9=O)CC7)cc6)CC5)cn4c3=O)c2)COC1 [Compound 203]
DC50 [1]: < 30 nM | Dmax [2]: > 70%

Cn1cnnc1CC1(c2cccc(-n3cc4c(C(F)(F)F)cc(CN5CCC(COCc6ccc(CN7CCN(c8ccc9c(c8)CN([C@@H]8CCC(=O)NC8=O)C9=O)CC7)cc6)CC5)cn4c3=O)c2)COC1 [Compound 215]
DC50 [1]: 1000 to 10000 nM | Dmax [2]: < 30%

Cn1cnnc1CC1(c2cccc(-n3cc4c(C(F)(F)F)cc(CN5CCC(COCc6ccc(CN7CCN(c8ccc9c(c8)CN([C@H]8CCC(=O)NC8=O)C9=O)CC7)cc6)CC5)cn4c3=O)c2)COC1 [Compound 216]
DC50 [1]: < 30 nM | Dmax [2]: > 70%

CO[C@H]1C[C@](c2cccc(-n3cc4c(C(F)(F)F)cc(CN5CCC(OCCOCc6ccc(CN7CCN(c8ccc9c(c8)CN([C@@H]8CCC(=O)NC8=O)C9=O)CC7)cc6)CC5)cn4c3=O)c2)(c2nncn2C)C1 [Compound 221]
DC50 [1]: 300 to 1000 nM | Dmax [2]: 30 to 50%

CO[C@H]1C[C@](c2cccc(-n3cc4c(C(F)(F)F)cc(CN5CCC(OCCOCc6ccc(CN7CCN(c8ccc9c(c8)CN([C@H]8CCC(=O)NC8=O)C9=O)CC7)cc6)CC5)cn4c3=O)c2)(c2nncn2C)C1 [Compound 222]
DC50 [1]: < 30 nM | Dmax [2]: > 70%

CO[C@H]1C[C@](c2cccc(-n3cc4c(C(F)(F)F)cc(CN5CCC(COCc6ccc(CN7CCN(c8ccc9c(c8)CN([C@@H]8CCC(=O)NC8=O)C9=O)CC7)cc6)CC5)cn4c3=O)c2)(c2nncn2C)C1 [Compound 223]
DC50 [1]: 30 to 300 nM | Dmax [2]: 30 to 50%

CO[C@H]1C[C@](c2cccc(-n3cc4c(C(F)(F)F)cc(CN5CCC(COCc6ccc(CN7CCN(c8ccc9c(c8)CN([C@H]8CCC(=O)NC8=O)C9=O)CC7)cc6)CC5)cn4c3=O)c2)(c2nncn2C)C1 [Compound 224]
DC50 [1]: < 30 nM | Dmax [2]: 50 to 70%

Cn1cnnc1[C@@H](c1cccc(-n2cc3c(C(F)(F)F)cc(CN4CCN(CCc5ccc(C6CCN(c7ccc8c(c7)CN([C@@H]7CCC(=O)NC7=O)C8=O)CC6)cc5)CC4)cn3c2=O)c1)C1CCC1 [Compound 227]
DC50 [1]: 30 to 300 nM | Dmax [2]: 50 to 70%

Cn1cnnc1CC1(c2cccc(-n3cc4c(C(F)(F)F)cc(CN5CCN(CCc6ccc(C7CCN(c8ccc9c(c8)CN([C@H]8CCC(=O)NC8=O)C9=O)CC7)cc6)CC5)cn4c3=O)c2)COC1 [Compound 230]
DC50 [1]: < 30 nM

Cn1cnnc1[C@@H](c1cccc(-n2cc3c(C(F)(F)F)cc(CN4CCC[C@H](COCc5ccc(CN6CCN(c7ccc8c(c7)CN([C@@H]7CCC(=O)NC7=O)C8=O)CC6)cc5)C4)cn3c2=O)c1)C1CCC1 [Compound 235]
Dmax (THP-1): 30 to 50%

Cn1cnnc1[C@@H](c1cccc(-n2cc3c(C(F)(F)F)cc(CN4CCC(OC(=O)N5CCC(CN6CCN(c7ccc8c(c7)CN([C@@H]7CCC(=O)NC7=O)C8=O)CC6)CC5)CC4)cn3c2=O)c1)C1CCC1 [Compound 237]
DC50 [1]: 30 to 300 nM | Dmax (THP-1): 50 to 70%

Cn1cnnc1[C@@H](c1cccc(-n2cc3c(C(F)(F)F)cc(CN4CCC(OC(=O)N5CCC(CN6CCN(c7ccc8c(c7)CN([C@H]7CCC(=O)NC7=O)C8=O)CC6)CC5)CC4)cn3c2=O)c1)C1CCC1 [Compound 238]
DC50 [1]: < 30 nM | Dmax (THP-1): > 70%

CN(CC1CCN(Cc2cc(C(F)(F)F)c3cn(-c4cccc(C5(Cc6nncn6C)COC5)c4)c(=O)n3c2)CC1)C(=O)c1ccc(C2CCN(c3ccc4c(c3)CN([C@@H]3CCC(=O)NC3=O)C4=O)CC2)cc1 [Compound 241]
DC50 [1]: < 30 nM | Dmax [2]: 50 to 70%

CN(CC1CCN(Cc2cc(C(F)(F)F)c3cn(-c4cccc(C5(Cc6nncn6C)COC5)c4)c(=O)n3c2)CC1)C(=O)c1ccc(C2CCN(c3ccc4c(c3)CN([C@H]3CCC(=O)NC3=O)C4=O)CC2)cc1 [Compound 242]
DC50 [1]: < 30 nM | Dmax [2]: > 70%

CO[C@H]1C[C@](c2cccc(-n3cc4c(C(F)(F)F)cc(CN5CCN(CCc6ccc(N7CCN(c8ccc9c(c8)CN([C@@H]8CCC(=O)NC8=O)C9=O)CC7)cc6)CC5)cn4c3=O)c2)(c2nncn2C)C1 [Compound 251]
DC50 [1]: 30 to 300 nM | Dmax [2]: > 70%

CO[C@H]1C[C@](c2cccc(-n3cc4c(C(F)(F)F)cc(CN5CCN(CCc6ccc(N7CCN(c8ccc9c(c8)CN([C@H]8CCC(=O)NC8=O)C9=O)CC7)cc6)CC5)cn4c3=O)c2)(c2nncn2C)C1 [Compound 252]
DC50 [1]: < 30 nM | Dmax [2]: > 70%

Cn1cnnc1CC1(c2cccc(-n3cc4c(C(F)(F)F)cc(CN5CCC(CC(=O)N6CCC(CN7CCN(c8ccc9c(c8)CN([C@@H]8CCC(=O)NC8=O)C9=O)CC7)CC6)CC5)cn4c3=O)c2)COC1 [Compound 255]
DC50 [1]: 30 to 300 nM | Dmax [2]: > 70%

Cn1cnnc1CC1(c2cccc(-n3cc4c(C(F)(F)F)cc(CN5CCC(CC(=O)N6CCC(CN7CCN(c8ccc9c(c8)CN([C@H]8CCC(=O)NC8=O)C9=O)CC7)CC6)CC5)cn4c3=O)c2)COC1 [Compound 256]
DC50 [1]: < 30 nM | Dmax (THP-1): > 70%

Cn1cnnc1CC1(c2cccc(-n3cc4c(C(F)(F)F)cc(CN5CCC(CCN6CCC(CC7CCN(c8ccc9c(c8)CN([C@H]8CCC(=O)NC8=O)C9=O)CC7)CC6)CC5)cn4c3=O)c2)COC1 [Compound 260]
DC50 [1]: 30 to 300 nM | Dmax [2]: 30 to 50%

Cn1cnnc1CC1(c2cccc(-n3cc4c(C(F)(F)F)cc(CN5CCC(C6CCN(C(=O)c7ccc(N8CCN(c9ccc%10c(c9)CN([C@@H]9CCC(=O)NC9=O)C%10=O)CC8)cc7)CC6)CC5)cn4c3=O)c2)COC1 [Compound 261]
DC50 [1]: < 30 nM | Dmax (THP-1): > 70%

Cn1cnnc1CC1(c2cccc(-n3cc4c(C(F)(F)F)cc(CN5CCC(C6CCN(C(=O)c7ccc(N8CCN(c9ccc%10c(c9)CN([C@H]9CCC(=O)NC9=O)C%10=O)CC8)cc7)CC6)CC5)cn4c3=O)c2)COC1 [Compound 262]
DC50 [1]: < 30 nM | Dmax (THP-1): > 70%

— patent US20250340552A1, “COMPOUNDS, COMPOSITIONS AND METHODS OF TREATING DISORDERS” (HOTSPOT THERAPEUTICS, INC., priority 2022, published 2025)
